For one data set, the system named is HSV-1. The data set is classed as cell-based, Herpes simplex viruses type 1. The settings on record: Aciclovir 1.5 mmol.

SMILES strings stand for the structures. Where two headings read alike, the source gives them in different places.

Compound `Nc1nc2c(ncn2COCCO)c(=O)[nH]1` [Aciclovir] displayed an Average relative inhibition in the data set with HSV-1 (average over virus dilutions) of 100. The “Number of plaque, Mean value” in the data set with HSV-1 (virus dilution 10^−5.0), with HSV-1 (virus dilution 10^−5.48) and in the data set with HSV-1 (virus dilution 10^−5.95) was 0 each time. The Relative infectiosity in the data set with HSV-1 (virus dilution 10^−5.0), with HSV-1 (virus dilution 10^−5.48) and with HSV-1 (virus dilution 10^−5.95) was 0 throughout. Also, the Relative inhibition in the data set with HSV-1 (virus dilution 10^−5.0), in the data set with HSV-1 (virus dilution 10^−5.48) and in the data set with HSV-1 (virus dilution 10^−5.95) was 100 in each case. In addition, the cytotoxicity entry with Vero cells and in the data set on BGM cells was “negative” throughout.

These data come from patent US9839669B2 (priority 2011, dated 2017).
